Patent US9597310B2, “Indanyloxydihydrobenzofuranylacetic acids” (Boehringer Ingelheim International GmbH, priority 2012, dated 2017)
pEC50: −log10 of the molar value.

Target: human GPR40 receptor (Homo sapiens (Human), UniProt O14842)
Assay: IP1 accumulation measurements using the IPOne assay system
Type: cell-based
Conditions: 1321N1 cells stably expressing human GPR40 receptor, 1 h stimulation
Procedure: IP1 accumulation measurements using the IPOne assay system—1321N1 cells stably expressing human GPR40 receptor (Euroscreen, Belgium) are seeded 24 h before the assay in white 384-well plates in culture medium containing 10% FCS, 1% Na-Pyruvate and 400 μg/mL G418. IP1 is assayed according to the manufacturer's description (Cisbio Bioassays, France). In brief, the assay is started by substitution of the culture medium by stimulation buffer (Hepes 10 mM, CaCl2 1 mM, MgCl2 0.5 mM, KCl 4.2 mM, NaCl 146 mM, glucose 5.5 mM and LiCl 50 mM, pH 7.4). Cells are stimulated for 1 h at 37° C., 5% CO2 by addition of the compounds that are diluted in stimulation buffer containing LiCl. Assays are stopped by adding HTRF-conjugates (IP1-d2 and Anti-IP1 cryptate Tb) and lysis buffer, provided by the manufacturer. After an incubation time of 1 h at room temperature plates are measured using an EnVision™, Perkin Elmer. The obtained fluorescence ratios at 665/615 […] are then used to calculate the pEC50 values using Assay Explorer 3.3 Software (Accelrys, Inc.) by interpolation using an IP1 reference curve and subsequent sigmoidal curve fitting allowing for a variable hill slope.

Chain of human GPR40 receptor (O14842 whole entry): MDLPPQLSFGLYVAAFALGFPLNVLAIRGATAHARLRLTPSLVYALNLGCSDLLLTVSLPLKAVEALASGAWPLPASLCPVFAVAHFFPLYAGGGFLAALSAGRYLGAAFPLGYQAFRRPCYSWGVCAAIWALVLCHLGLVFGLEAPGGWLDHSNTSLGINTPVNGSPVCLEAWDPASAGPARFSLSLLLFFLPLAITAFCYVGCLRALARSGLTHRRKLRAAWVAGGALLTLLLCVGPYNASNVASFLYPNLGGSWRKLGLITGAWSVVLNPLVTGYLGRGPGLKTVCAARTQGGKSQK

Compound	pEC50
O=C(O)C[C@@H]1COc2cc(O[C@@H]3CCc4c(Oc5ccc(CN6CCCC6)cc5)ccc(F)c43)ccc21 [Example 59, ((S)-6-{(R)-7-Fluoro-4-[4-(pyrrolidin-1-ylmethyl)phenoxy]-indan-1-yloxy}-2,3-dihydrobenzofuran-3-yl)-acetic acid]	6.67
Cn1ccnc1-c1ccc(Oc2ccc(F)c3c2CC[C@H]3Oc2ccc3c(c2)OC[C@H]3CC(=O)O)cc1 [Example 38, ((S)-6-{(R)-7-Fluoro-4-[4-(1-methyl-1H-imidazol-2-yl)phenoxy]-indan-1-yloxy}-2,3-dihydrobenzofuran-3-yl)-acetic acid]	7.39
CC(C)(O)CCOc1ccc(Oc2ccc(F)c3c2CC[C@H]3Oc2ccc3c(c2)OC[C@H]3CC(=O)O)c(F)c1 [Example 53, ((S)-6-{(R)-7-Fluoro-4-[2-fluoro-4-(3-hydroxy-3-methylbutoxy)phenoxy]-indan-1-yloxy}-2,3-dihydrobenzofuran-3-yl)-acetic acid]	8.15
O=C(O)C[C@@H]1COc2cc(O[C@@H]3CCc4c(Oc5ccc(OC6CCOCC6)cc5F)ccc(F)c43)ccc21 [Example 50, ((S)-6-{(R)-7-Fluoro-4-[2-fluoro-4-(tetrahydro-2H-pyran-4-yloxy)phenoxy]-indan-1-yloxy}-2,3-dihydrobenzofuran-3-yl)-acetic acid]	8.40
CC(C)(O)CCOc1ccc(C#N)c(Oc2ccc(F)c3c2CC[C@H]3Oc2ccc3c(c2)OC[C@H]3CC(=O)O)c1 [Example 42, ((S)-6-{(R)-4-[2-Cyano-5-(3-hydroxy-3-methylbutoxy)-phenoxy]-7-fluoro-indan-1-yloxy}-2,3-dihydrobenzofuran-3-yl)-acetic acid]	6.92
CC(C)(O)CCCc1ccc(Oc2ccc(F)c3c2CC[C@H]3Oc2ccc3c(c2)OC[C@H]3CC(=O)O)cc1 [Example 28, ((S)-6-{(R)-7-Fluoro-4-[4-(4-hydroxy-4-methylpentyl)phenoxy]-indan-1-yloxy}-2,3-dihydrobenzofuran-3-yl)-acetic acid]	7.70
CC(C)(O)CCCc1ccc(Oc2ccc(F)c3c2CC[C@H]3Oc2ccc3c(c2)OC[C@H]3CC(=O)O)nc1 [Example 23, [(S)-6-{(R)-7-Fluoro-4-[5-(4-hydroxy-4-methyl-pentyl)-pyridin-2-yloxy]-indan-1-yloxy}-2,3-dihydro-benzofuran-3-yl]-acetic acid]	7.08
Cc1noc(C)c1-c1ccc(Oc2ccc(F)c3c2CC[C@H]3Oc2ccc3c(c2)OC[C@H]3CC(=O)O)c(C#N)c1 [Example 49, ((S)-6-{(R)-4-[2-Cyano-4-(3,5-dimethylisoxazol-4-yl)phenoxy]-7-fluoro-indan-1-yloxy}-2,3-dihydrobenzofuran-3-yl)-acetic acid]	7.77
O=C(O)C[C@@H]1COc2cc(O[C@@H]3CCc4c(Oc5ccc(-n6ccnc6)cc5)ccc(F)c43)ccc21 [Example 10, {(S)-6-[(R)-7-Fluoro-4-(4-imidazol-1-yl-phenoxy)-indan-1-yloxy]-2,3-dihydro-benzofuran-3-yl}-acetic acid]	7.96
O=C(O)C[C@@H]1COc2cc(O[C@@H]3CCc4c(Oc5ccc(N6CCCC6=O)cc5)ccc(F)c43)ccc21 [Example 58, ((S)-6-{(R)-7-Fluoro-4-[4-(2-oxopyrrolidin-1-yl)phenoxy]-indan-1-yloxy}-2,3-dihydrobenzofuran-3-yl)-acetic acid]	7.74
Cn1nnnc1-c1ccc(Oc2ccc(F)c3c2CC[C@H]3Oc2ccc3c(c2)OC[C@H]3CC(=O)O)cc1 [Example 14, [(S)-6-{(R)-7-Fluoro-4-[4-(1-methyl-1H-tetrazol-5-yl)-phenoxy]-indan-1-yloxy}-2,3-dihydro-benzofuran-3-yl]-acetic acid]	7.64
CC(C)(O)Cn1cc(-c2cc(F)c(Oc3ccc(F)c4c3CC[C@H]4Oc3ccc4c(c3)OC[C@H]4CC(=O)O)cc2F)cn1 [Example 29, [(S)-6-((R)-4-{2,5-Difluoro-4-[1-(2-hydroxy-2-methylpropyl)-1H-pyrazol-4-yl]phenoxy}-7-fluoro-indan-1-yloxy)-2,3-dihydrobenzofuran-3-yl]-acetic acid]	7.92
O=C(O)C[C@@H]1COc2cc(O[C@@H]3CCc4c(Oc5ccc(OCC6(O)CCOCC6)c(F)c5)ccc(F)c43)ccc21 [Example 37, [(S)-6-((R)-7-Fluoro-4-{3-fluoro-4-[(4-hydroxytetrahydro-2H-pyran-4-yl)-methoxy]phenoxy}-indan-1-yloxy)-2,3-dihydrobenzofuran-3-yl]-acetic acid]	8.10
CC(C)(O)Cn1cc(-c2cc(F)c(Oc3ccc(F)c4c3CC[C@H]4Oc3ccc4c(c3)OC[C@H]4CC(=O)O)c(F)c2)cn1 [Example 31, [(S)-6-((R)-4-{2,6-Difluoro-4-[1-(2-hydroxy-2-methylpropyl)-1H-pyrazol-4-yl]phenoxy}-7-fluoro-indan-1-yloxy)-2,3-dihydrobenzofuran-3-yl]-acetic acid]	7.24
CC(C)(O)CCOc1ccc(Oc2ccc(F)c3c2CC[C@H]3Oc2ccc3c(c2)OC[C@H]3CC(=O)O)cc1C#N [Example 44, ((S)-6-{(R)-4-[3-Cyano-4-(3-hydroxy-3-methylbutoxy)phenoxy]-7-fluoro-indan-1-yloxy}-2,3-dihydrobenzofuran-3-yl)-acetic acid]	8.15
CC(C)(O)CCn1ncc2ccc(Oc3ccc(F)c4c3CC[C@H]4Oc3ccc4c(c3)OC[C@H]4CC(=O)O)cc21 [Example 36, ((S)-6-{(R)-7-Fluoro-4-[1-(3-hydroxy-3-methylbutyl)-1H-indazol-6-yloxy]-indan-1-yloxy}-2,3-dihydrobenzofuran-3-yl)-acetic acid]	8.10
O=C(O)C[C@@H]1COc2cc(O[C@@H]3CCc4c(Oc5cccc(N6CCCC6=O)c5)ccc(F)c43)ccc21 [Example 57, ((S)-6-{(R)-7-Fluoro-4-[3-(2-oxopyrrolidin-1-yl)phenoxy]-indan-1-yloxy}-2,3-dihydrobenzofuran-3-yl)-acetic acid]	8.40
Cn1nnc(-c2ccc(Oc3ccc(F)c4c3CC[C@H]4Oc3ccc4c(c3)OC[C@H]4CC(=O)O)cc2)n1 [Example 15, [(S)-6-{(R)-7-Fluoro-4-[4-(2-methyl-2H-tetrazol-5-yl)-phenoxy]-indan-1-yloxy}-2,3-dihydro-benzofuran-3-yl]-acetic acid]	8.52
O=C(O)C[C@@H]1COc2cc(O[C@@H]3CCc4c(Oc5ccc(C6CCOCC6)cc5)ccc(F)c43)ccc21 [Example 27, ((S)-6-{(R)-7-Fluoro-4-[4-(tetrahydro-2H-pyran-4-yl)phenoxy]-indan-1-yloxy}-2,3-dihydrobenzofuran-3-yl)-acetic acid]	8.05
CS(=O)(=O)CCCOc1ccc(Oc2ccc(F)c3c2CC[C@H]3Oc2ccc3c(c2)OC[C@H]3CC(=O)O)cc1 [Example 4, [(S)-6-{(R)-7-Fluoro-4-[4-(3-methanesulfonyl-propoxy)-phenoxy]-indan-1-yloxy}-2,3-dihydro-benzofuran-3-yl)-acetic acid]	7.82
N#CCCc1ccc(Oc2ccc(F)c3c2CC[C@H]3Oc2ccc3c(c2)OC[C@H]3CC(=O)O)cc1 [Example 61, ((S)-6-{(R)-4-[4-(2-Cyanoethyl)phenoxy]-7-fluoro-indan-1-yloxy}-2,3-dihydrobenzofuran-3-yl)-acetic acid]	7.89
O=C(O)C[C@@H]1COc2cc(O[C@@H]3CCc4c(Oc5ccc6c(c5)OCO6)ccc(F)c43)ccc21 [Example 25, {(S)-6-[(R)-4-(Benzo[d][1,3]dioxol-5-yloxy)-7-fluoro-indan-1-yloxy]-2,3-dihydrobenzofuran-3-yl}-acetic acid]	8.22
CS(=O)(=O)CCCOc1c(F)cc(Oc2ccc(F)c3c2CC[C@H]3Oc2ccc3c(c2)OC[C@H]3CC(=O)O)cc1F [Example 19, [(S)-6-{(R)-4-[3,5-Difluoro-4-(3-methanesulfonyl-propoxy)-phenoxy]-7-fluoro-indan-1-yloxy}-2,3-dihydro-benzofuran-3-yl]-acetic acid]	7.92
CS(=O)(=O)CCCOc1cc(F)c(Oc2ccc(F)c3c2CC[C@H]3Oc2ccc3c(c2)OC[C@H]3CC(=O)O)cc1F [Example 39, [(S)-6-((R)-4-{2,5-Difluoro-4-[3-(methylsulfonyl)propoxy]phenoxy}-7-fluoro-indan-1-yloxy)-2,3-dihydrobenzofuran-3-yl]-acetic acid]	7.64
Cc1cc(OCCC(C)(C)O)cc(C)c1Oc1ccc(F)c2c1CC[C@H]2Oc1ccc2c(c1)OC[C@H]2CC(=O)O [Example 40, ((S)-6-{(R)-7-Fluoro-4-[4-(3-hydroxy-3-methylbutoxy)-2,6-dimethylphenoxy]-indan-1-yloxy}-2,3-dihydrobenzofuran-3-yl)-acetic acid]	6.13
CC(C)(O)CCOc1cc(F)c(Oc2ccc(F)c3c2CC[C@H]3Oc2ccc3c(c2)OC[C@H]3CC(=O)O)cc1F [Example 34, ((S)-6-{(R)-4-[2,5-Difluoro-4-(3-hydroxy-3-methylbutoxy)phenoxy]-7-fluoro-indan-1-yloxy}-2,3-dihydrobenzofuran-3-yl)-acetic acid]	8.22
CC(C)(O)CCc1ccc(Oc2ccc(F)c3c2CC[C@H]3Oc2ccc3c(c2)OC[C@H]3CC(=O)O)c(C#N)c1 [Example 62, ((S)-6-{(R)-4-[2-Cyano-4-(3-hydroxy-3-methylbutyl)phenoxy]-7-fluoro-indan-1-yloxy}-2,3-dihydrobenzofuran-3-yl)-acetic acid]	7.92
